Assays:
[1] = target: T1, IDH2 R140Q (Homo sapiens, UniProt P48735, R140Q); test: IDH2 R140Q enzymatic assay (cofactor depletion, similar format); assay type: biochemical; conditions: for IC50: read-out: Enz R140Q
T1 sequence (P48735 40-452 R140Q): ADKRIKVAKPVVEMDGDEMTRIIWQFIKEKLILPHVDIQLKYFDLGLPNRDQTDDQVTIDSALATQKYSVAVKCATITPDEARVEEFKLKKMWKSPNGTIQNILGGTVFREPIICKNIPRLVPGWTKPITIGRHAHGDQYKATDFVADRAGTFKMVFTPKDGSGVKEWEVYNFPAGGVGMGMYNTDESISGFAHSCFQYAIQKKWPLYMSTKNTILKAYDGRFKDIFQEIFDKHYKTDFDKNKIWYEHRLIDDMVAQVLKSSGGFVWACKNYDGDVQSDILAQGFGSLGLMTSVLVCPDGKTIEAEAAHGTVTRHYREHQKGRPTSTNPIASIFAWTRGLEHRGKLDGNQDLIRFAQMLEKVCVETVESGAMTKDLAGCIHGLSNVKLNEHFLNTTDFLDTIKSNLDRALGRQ
Procedure: [The source words this procedure for another variant and says it was used here with some conditions changed.] Compounds are assayed for IDH2 R172K inhibitory activity through a cofactor depletion assay. […] The reaction is terminated by the addition of a second enzyme, diaphorase, and a corresponding substrate, resazurin. Diaphorase reduces resazurin to the highly fluorescent resorufin with the concomitant oxidation of NADPH to NADP, both halting the IDH2 reaction by depleting the available cofactor pool and facilitating quantitation of the amount of cofactor remaining after a specific time period through quantitative production of an easily detected fluorophore.
The test compound is then incubated for one hour at room temperature with the enzyme; before starting the IDH2 reaction with the addition of 10 μl of substrate mix containing 50 μM NADPH and 6.3 mM α-KG in the buffer described above. After a further one hour of incubation at room temperature, the reaction is halted and the remaining NADPH measured through conversion of resazurin to resorufin by the addition of 25 μl Stop Mix (36 μg/ml diaphorase enzyme and 60 μM resazurin; in buffer).

[2] = test system: U87MG pLVX-IDH2 R140Q-neo cells; test: U87MG pLVX-IDH2 R140Q-neo cell based assay, 2-HG in media by LC-MS at 48 hours; conditions: for IC50: Homo sapiens, U-87 MG
Procedure: U87MG pLVX-IDH2 R140Q-neo cells are grown in T125 flasks in DMEM containing 10% FBS, 1× penicillin/streptomycin and 500 μg/mL G418. They are harvested by trypsin and seeded into 96 well white bottom plates at a density of 5000 cell/well in 100 μl/well in DMEM with 10% FBS. No cells are plated in columns 1 and 12. Cells are incubated overnight at 37° C. in 5% CO2. The next day compounds are made up at 2× concentration and 100 ul are added to each cell well. The final concentration of DMSO is 0.2% and the DMSO control wells are plated in row G. The plates are then placed in the incubator for 48 hours. At 48 hours, 100 ul of media is removed from each well and analyzed by LC-MS for 2-HG concentrations. The cell plate is placed back in the incubator for another 24 hours. At 72 hours post compound addition, 10 mL/plate of Promega Cell Titer Glo reagent is thawed and mixed. The cell plate is removed from the incubator and allowed to equilibrate to room temperature. Then 100 ul of reagent is added to each well of media. The cell plate is then placed on an orbital shaker for 10 minutes and then allowed to sit at room temperature for 20 minutes. The plate is then read for luminescence with an integration time of 500 ms to determine compound effects on growth inhibition.

IC50 [1] [nM] | Structure (SMILES) | further results
1000 to 10000 | c1ccc(-c2nc(Nc3ccncc3)nc(NC3CCOCC3)n2)cc1 [Compound 258, 6-phenyl-N^2-(pyridin-4-yl)-N^4-(tetrahydro-2H-pyran-4-yl)-1,3,5-triazine-2,4-diamine] | 
< 100 | CC(C)Nc1nc(Nc2ccnc(N(C)C)c2)nc(-c2ccccc2)n1 [Compound 293, N^2-(2-(dimethylamino)pyridin-4-yl)-N^4-isopropyl-6-phenyl-1,3,5-triazine-2,4-diamine] | IC50 [2]: < 100 nM
1000 to 10000 | CNc1ccc(Nc2nc(NC(C)C)nc(-c3ccccc3)n2)cn1 [Compound 303, N^2-isopropyl-N^4-(6-(methylamino)pyridin-3-yl)-6-phenyl-1,3,5-triazine-2,4-diamine] | Cell R140Q [2]: No Fit
 | CC(CO)Nc1nc(Nc2ccncc2)nc(-c2ccccc2)n1 (centres unmarked) [Compound 278, 2-(4-phenyl-6-(pyridin-4-ylamino)-1,3,5-triazin-2-ylamino)propan-1-ol] | Enz R140Q [1]: No Fit
 | CC(C)Nc1nc(Nc2ccncc2F)nc(-c2ccccc2)n1 [Compound 292, N^2-(3-fluoropyridin-4-yl)-N^4-isopropyl-6-phenyl-1,3,5-triazine-2,4-diamine] | Enz R140Q [1]: No Fit; Cell R140Q [2]: No Fit
100 to 1000 | CC(O)C(=O)Nc1nc(Nc2ccccc2)nc(-c2ccccc2)n1 (centres unmarked) [Compound 324, 2-hydroxy-N-(4-phenyl-6-(phenylamino)-1,3,5-triazin-2-yl)propanamide] | IC50 [2]: 1000 to 10000 nM
< 100 | CC(C)Nc1nc(Nc2cc(F)cc(F)c2)nc(-c2cccc(N)n2)n1 [Compound 398, 6-(6-aminopyridin-2-yl)-N^2-(3,5-difluorophenyl)-N^4-isopropyl-1,3,5-triazine-2,4-diamine] | IC50 [2]: < 100 nM
100 to 1000 | CC(C)Nc1nc(Nc2ccnc(C#N)c2)nc(-c2cccc(Cl)n2)n1 [Compound 355, 4-(4-(6-chloropyridin-2-yl)-6-(isopropylamino)-1,3,5-triazin-2-ylamino)picolinonitrile] | IC50 [2]: < 100 nM
100 to 1000 | CC(C)Nc1nc(Nc2cncc(C#N)c2)nc(-c2cccc(Cl)n2)n1 [Compound 382, 5-(4-(6-chloropyridin-2-yl)-6-(isopropylamino)-1,3,5-triazin-2-ylamino)nicotinonitrile] | IC50 [2]: < 100 nM
1000 to 10000 | CC#Cc1cccc(-c2nc(Nc3cccc(S(C)(=O)=O)c3)nc(NC(C)C)n2)n1 [Compound 365, N^2-isopropyl-N^4-(3-(methylsulfonyl)phenyl)-6-(6-(prop-1-ynyl)pyridin-2-yl)-1,3,5-triazine-2,4-diamine] | 
1000 to 10000 | N#CC1(Nc2nc(Nc3ccncc3)nc(-c3ccccc3)n2)CC1 [Compound 285, 1-(4-phenyl-6-(pyridin-4-ylamino)-1,3,5-triazin-2-ylamino)cyclopropanecarbonitrile] | 
1000 to 10000 | OC1CCC(Nc2nc(Nc3ccncc3)nc(-c3ccccc3)n2)CC1 (centres unmarked) [Compound 256, 4-(4-phenyl-6-(pyridin-4-ylamino)-1,3,5-triazin-2-ylamino)cyclohexanol] | 
 | c1ccc(-c2nc(NCC3CNCCO3)nc(Nc3ccncc3)n2)cc1 (centres unmarked) [Compound 234, N^2-(morpholin-2-ylmethyl)-6-phenyl-N^4-(pyridin-4-yl)-1,3,5-triazine-2,4-diamine] | Enz R140Q [1]: No Fit
100 to 1000 | c1ccc(-c2nc(NCC3CCCO3)nc(Nc3ccncc3)n2)cc1 (centres unmarked) [Compound 222, 6-phenyl-N^2-(pyridin-4-yl)-N^4-((tetrahydrofuran-2-yl)methyl)-1,3,5-triazine-2,4-diamine] | 
 | O[C@H]1CC[C@@H](Nc2nc(Nc3ccncc3)nc(-c3ccccc3)n2)C1 [Compound 283, (1S,3R)-3-(4-phenyl-6-(pyridin-4-ylamino)-1,3,5-triazin-2-ylamino)cyclopentanol] | Enz R140Q [1]: No Fit
> 10000 | O=C1CCC(C(=O)Nc2nc(Nc3ccccc3)nc(-c3ccccc3)n2)N1 (centres unmarked) [Compound 413, 5-oxo-N-(4-phenyl-6-(phenylamino)-1,3,5-triazin-2-yl)pyrrolidine-2-carboxamide] | 
> 10000 | c1ccc(-c2nc(Nc3ccncc3)nc(NC3CCCOC3)n2)cc1 (centres unmarked) [Compound 273, 6-phenyl-N^2-(pyridin-4-yl)-N^4-(tetrahydro-2H-pyran-3-yl)-1,3,5-triazine-2,4-diamine] | 

IC50 [1] [nM] | Structure (SMILES) | further results
1000 to 10000 | c1ccc(-c2nc(NCC3CCO3)nc(Nc3ccncc3)n2)cc1 (centres unmarked) [Compound 264, N^2-(oxetan-2-ylmethyl)-6-phenyl-N^4-(pyridin-4-yl)-1,3,5-triazine-2,4-diamine] | 
> 10000 | COC(C)CNc1nc(Nc2ccncc2)nc(-c2ccccc2)n1 (centres unmarked) [Compound 274, N^2-(2-methoxypropyl)-6-phenyl-N^4-(pyridin-4-yl)-1,3,5-triazine-2,4-diamine] | 
100 to 1000 | CC1(Nc2nc(Nc3ccncc3)nc(-c3ccccc3)n2)COC1 [Compound 251, N^2-(3-methyloxetan-3-yl)-6-phenyl-N^4-(pyridin-4-yl)-1,3,5-triazine-2,4-diamine] | 
> 10000 | CC(C)(C)C(CO)Nc1nc(Nc2ccncc2)nc(-c2ccccc2)n1 (centres unmarked) [Compound 286, 3,3-dimethyl-2-(4-phenyl-6-(pyridin-4-ylamino)-1,3,5-triazin-2-ylamino)butan-1-ol] | 
100 to 1000 | O=C1CC(Nc2nc(Nc3ccncc3)nc(-c3ccccc3)n2)C1 [Compound 276, 3-(4-phenyl-6-(pyridin-4-ylamino)-1,3,5-triazin-2-ylamino)cyclobutanone] | 
1000 to 10000 | O=C(Nc1nc(Nc2ccccc2)nc(-c2ccccc2)n1)C1(O)CC1 [Compound 412, 1-hydroxy-N-(4-phenyl-6-(phenylamino)-1,3,5-triazin-2-yl)cyclopropanecarboxamide] | 
> 10000 | CC(C)C(CO)Nc1nc(Nc2ccncc2)nc(-c2ccccc2)n1 (centres unmarked) [Compound 279, 3-methyl-2-(4-phenyl-6-(pyridin-4-ylamino)-1,3,5-triazin-2-ylamino)butan-1-ol] | 
> 10000 | O=C(CO)Nc1nc(Nc2ccccc2)nc(-c2ccccc2)n1 [Compound 348, 2-hydroxy-N-(4-phenyl-6-(phenylamino)-1,3,5-triazin-2-yl)acetamide] | 
> 10000 | O=C(Nc1nc(Nc2ccccc2)nc(-c2ccccc2)n1)C1CCOC1 (centres unmarked) [Compound 415, N-(4-phenyl-6-(phenylamino)-1,3,5-triazin-2-yl)tetrahydrofuran-3-carboxamide] | 
100 to 1000 | CN(C)C(=O)Nc1nc(Nc2ccccc2)nc(-c2ccccc2)n1 [Compound 182, 1,1-dimethyl-3-(4-phenyl-6-(phenylamino)-1,3,5-triazin-2-yl)urea] | 
100 to 1000 | c1ccc(-c2nc(Nc3ccncc3)nc(NC3CCCC3)n2)cc1 [Compound 287, N^2-cyclopentyl-6-phenyl-N^4-(pyridin-4-yl)-1,3,5-triazine-2,4-diamine] | 
100 to 1000 | CCNC(=O)Nc1nc(Nc2ccccc2)nc(-c2ccccc2)n1 [Compound 207, 1-ethyl-3-(4-phenyl-6-(phenylamino)-1,3,5-triazin-2-yl)urea] | 
 | CC(O)CNc1nc(Nc2ccncc2)nc(-c2ccccc2)n1 (centres unmarked) [Compound 271, 1-(4-phenyl-6-(pyridin-4-ylamino)-1,3,5-triazin-2-ylamino)propan-2-ol] | Enz R140Q [1]: No Fit
100 to 1000 | CC(C)Nc1nc(Nc2ccccc2)nc(-c2ccc(C#N)cc2)n1 [Compound 108] | 
 | OC1CCCCC1Nc1nc(Nc2ccncc2)nc(-c2ccccc2)n1 (centres unmarked) [Compound 282, 2-(4-phenyl-6-(pyridin-4-ylamino)-1,3,5-triazin-2-ylamino)cyclohexanol] | Enz R140Q [1]: No Fit
> 10000 | c1ccc(-c2nc(Nc3ccncc3)nc(NC3CCCCC3)n2)cc1 [Compound 280, N^2-cyclohexyl-6-phenyl-N^4-(pyridin-4-yl)-1,3,5-triazine-2,4-diamine] | 
100 to 1000 | O=C(Nc1nc(Nc2ccccc2)nc(-c2ccccc2)n1)c1ccn[nH]1 [Compound 347, N-(4-phenyl-6-(phenylamino)-1,3,5-triazin-2-yl)-1H-pyrazole-5-carboxamide] | 

Source: patent US9512107B2, “Therapeutically active compositions and their methods of use” (Agios Pharmaceuticals, Inc., priority 2012, dated 2016)
